{
  "source": "patent US20250049904A1",
  "about": "“IMMUNOSTIMULATORY COMPOSITIONS” (VICTORIA LINK LIMITED, priority 2021, published 2025)",
  "key": {"[1]": {"tested_on": "tissue-resident memory T cells (TRM cells)", "experiment": "LPX-mRNA vaccination of mice i.v.; antigen-specific TRM, TEM and TCM cells in liver and spleen by flow cytometry", "format": "in vivo, C57BL/6 mice", "procedure": "FIG. 1 provides a graphical representation showing that LPX-mRNA vaccines containing CI058 induce high levels of liver TRM cells. Liposomes were prepared with DOTMA and DOPE lipids and complexed with mRNA encoding chicken ovalbumin (OVA) to give vaccine LPX-mOVA. Additional vaccines were prepared by including either the prototypical NKT cell agonist α-GalCer (LPX-mOVA-α-GalCer) or the derivative CI058, which has BODIPY attached via an —S in the 6 position of the galactose (LPX-mOVA-CI058). Recipient C57BL/6 mice were transferred 50,000 naïve OVA-specific TCR-transgenic CD8+ T cells (OT-I cells) to enhance the precursor frequency of antigen-specific T cells to aid detection of vaccine-induced responses. A day later, groups of mice (n=5-6) were vaccinated intravenously (0.08 nmol) with the different vaccines; a naive mouse was left untreated. After 28 days, mice were killed and liver and spleen collected for analysis of induced T cell response by flow cytometry. Antigen-specific cells were identified using fluorescent MHC/peptide tetramers containing the targeted CD8^+ T cell epitope recognised by OT-I cells, and expression of Ly5.1, a congenic marker expressed by the OT-I mouse strain and not recipient C57BL/6 mice. The antigen-specific cells were further characterised as resident-memory T cells (TRM cells; CD8^+ Ly5.1^+ […] CD62L^low cells), effector memory T cells (TEM cells; CD8^+ Ly5.1^+ CD44^+ CD69^− CD62L^low cells) or central memory cells (TCM cells; CD8^+ Ly5.1^+ CD44^+ CD69^− CD62Lhigh cells). (A) Percentages of TRM, TEM and TCM OT-I cells in each treatment group in liver. Mean±SEM for each T cell subset are shown; statistical analysis relates only to pairwise comparisons of the percentage of TRM cells between the treatment groups. Black bars: TRM cells; white bars: TEM cells; grey bars: TCM cells. *P<0.05, **P<0.01, ***P<0.001, ****P<0.0001. One-way ANOVA. (B) Percentages of RM, TEM and TCM OT-I cells in each treatment group in spleen. (C) Mean number of TRM cells in liver for each treatment group (±SEM); dots represent individual mice. Black bars: TRM cells; white bars: TEM cells; grey bars: TCM cells. *P<0.05, **P<0.01, ***P<0.001, ****P<0.0001. One-way ANOVA.\nDose response of LPX-mOVA-α-GalCer versus LPX-mOVA-CI058 vaccines. Analysis was in C57BL/6 mice, without transfer of OT-I cells, so endogenous T cell responses were monitored on a normal T cell repertoire. Groups of 5 mice were used, and vaccines were administered intravenously. After 28 days, mice were killed and liver tissue collected for analysis of induced T cell response by flow cytometry. Antigen-specific cells were identified using fluorescent MHC/peptide tetramers, and further characterised as resident-memory T cells (TRM CD8^+ CD44^+ CD69^+ CXCR6^+ CD49a^+ CD62L^low cells), effector memory T cells (TEM CD8^+ CD44^+ CD69^− KLRG1^+ CXCR3^+ CD62L^low cells) or central memory cells (TCM CD8^+ CD44^+ CD69^− CD62L^high cells). At the same timer, NKT cells in the liver were also evaluated using fluorescent CD1d/α-GalCer tetramers. These were characterised for expression of different markers of activation, including PD-1 (only the latter is shown here). White circles: LPX-mOVA-α-GalCer; black circles: LPX-mOVA-CI058. (A) Graph showing mean number of TRM cells in liver for each treatment group (±SEM) overdose range. ****P<0.0001. (B) Graph showing mean level of expression of the “invariant” NKT cell-associated TCR for each treatment group (±SEM), defined as level of binding of fluorescent CD1d/α-GalCer tetramers and expressed as mean fluorescence index. ****P<0.0001 (C) Graph showing mean level of expression of PD-1 on NKT cells for each treatment group (±SEM). **P<0.01\nTo examine whether a prodrug mechanism is involved in enhanced TRM cell induction, LPX-mOVA-CI058 vaccines were compared to vaccines containing different NKT cell agonist prodrugs. […]"}, "NKT cells in the liver": {"tested_on": "NKT cells in the liver", "experiment": "NKT cell phenotype in the liver after LPX-mRNA vaccination (CD1d/α-GalCer tetramer binding, PD-1)", "format": "in vivo, C57BL/6 mice", "conditions": "correlates with dose", "procedure": "Dose response of LPX-mOVA-α-GalCer versus LPX-mOVA-CI058 vaccines. Analysis was in C57BL/6 mice, without transfer of OT-I cells, so endogenous T cell responses were monitored on a normal T cell repertoire. Groups of 5 mice were used, and vaccines were administered intravenously. After 28 days, mice were killed and liver tissue collected for analysis of induced T cell response by flow cytometry. […] At the same timer, NKT cells in the liver were also evaluated using fluorescent CD1d/α-GalCer tetramers. […] (B) Graph showing mean level of expression of the “invariant” NKT cell-associated TCR for each treatment group (±SEM), defined as level of binding of fluorescent CD1d/α-GalCer tetramers and expressed as mean fluorescence index. ****P<0.0001 (C) Graph showing mean level of expression of PD-1 on NKT cells for each treatment group (±SEM). **P<0.01\nLymphocytes were stained with monoclonal antibodies for: CD8a (53-6.7), Ly5.1 (A20), CD44 (IM7), CXCR6 (SA051D1), CX3CR1 (SA011F11), from BioLegend (Australian Biosearch, Karrinyup, WA. Australia), and CD62L (MEL-14) and CD69 (H1.2F3), from eBioscience (Jomar Life Research, Scoresby, VIC, Australia). […] Single-color positive control samples were used to adjust compensation and cells were analyzed by flow cytometry on a LSR Fortessa (BD Biosciences), or LSRII SORP using Flowjo software (Tree Star Inc.)."}},
  "note": "“Also recorded” adds a separate entry of the source.",
  "data": [
    {"smiles": "CCCCCCCCCCCCCCCCCCCCCCCCCC(=O)N[C@@H](CO[C@H]1O[C@H](CSCC(=O)Nc2ccc(C3=C4C(C)=CC(C)=[N+]4[B-](F)(F)n4c(C)cc(C)c43)cc2)[C@H](O)[C@H](O)[C@H]1O)[C@H](O)[C@H](O)CCCCCCCCCCCCCC", "note": "[CI058, (2S,3S,4R)-1-(6-Deoxy-6-((2-((4-(5,5-difluoro-1,3,7,9-tetramethyl-5H-4λ4,5λ4-dipyrrolo[1,2-c:2′,1′-f][1,3,2]diazaborinin-10-yl)phenyl)amino)-2-oxoethyl)thio)-α-D-galactopyranosyloxy)-2-hexacosanoylamino-3,4-octadecandiol]", "values": [
      {"measurement": "overall level of T cell accumulation in liver", "setting": "[1]; LPX vaccines with vs without CI058", "value": "higher overall levels of T cell accumulation in liver"},
      {"measurement": "accumulation (population size) of TRM cells in liver", "setting": "[1]; LPX-mOVA vaccines i.v., 28-30 days, compared to vaccines with α-GalCer or without agonist", "value": "significantly larger populations of TRM cells in the liver tissue; also recorded: significantly enhanced populations of liver TRM cells; also recorded: also enhanced"},
      {"measurement": "proportion of TRM cells among antigen-specific T cells in liver and spleen", "setting": "[1]; LPX-mOVA vaccines i.v., OT-I cell transfer, 28 days after vaccination", "value": "enhanced in both tissues, although is consistently more pronounced in liver; also recorded: significantly biased towards TRM cells"},
      {"measurement": "peak level of liver TRM cells in dose response", "setting": "[1]; LPX-mOVA-CI058 vs LPX-mOVA-α-GalCer, no OT-I transfer, day 28", "value": "significantly higher than achieved with vaccines with α-GalCer"},
      {"measurement": "lower dose giving parity in liver TRM cell levels with α-GalCer vaccine", "setting": "[1]; dose response, LPX-mOVA-CI058 vs LPX-mOVA-α-GalCer, no OT-I transfer, day 28", "value": 10, "unit": "fold"},
      {"measurement": "liver TRM cell induction, vaccine encoding malaria antigen RPL6", "setting": "[1]; endogenous T cell response, no T cell transfer, 30 days", "value": "enhancing liver TRM cell induction"},
      {"measurement": "expression of NKT cell-associated invariant TCR in liver", "setting": "NKT cells in the liver; CD1d/α-GalCer tetramers", "value": "significantly reduced expression"},
      {"measurement": "expression of PD-1 on liver NKT cells", "setting": "NKT cells in the liver", "value": "significantly increased expression"}
    ]}
  ]
}
